According to the NIST ThermoML archive (doi:10.1021/je060271a):
Numbers after ± are expanded uncertainties.

Conditions: 283.14 K, Liquid, Vibrating tube method

Measured: mass density

CCCCCCC(=O)OCC(COC(=O)CCCCCC)(COC(=O)CCCCCC)COC(=O)CCCCCC [pentaerythritol tetraheptanoate]
1002 ± 1.2 kg/m3: 29704 kPa | 29801 kPa | 29852 kPa | 29876 kPa | 29904 kPa | 29928 kPa | 29951 kPa | 29975 kPa | 30004 kPa | 30027 kPa | 30051 kPa | 30079 kPa
1002.4 ± 1.2 kg/m3: 30620 kPa | 30675 kPa | 30700 kPa
1001.3 ± 1.2 kg/m3: 28263 kPa | 28326 kPa | 28370 kPa | 28395 kPa | 28441 kPa | 28503 kPa | 28528 kPa | 28550 kPa | 28617 kPa | 28732 kPa
1001 ± 1.2 kg/m3: 28046 kPa | 28067 kPa | 28219 kPa
1001.1 ± 1.2 kg/m3: 28089 kPa | 28108 kPa | 28154 kPa | 28195 kPa | 28352 kPa
1001.6 ± 1.2 kg/m3: 28912 kPa | 28939 kPa | 28961 kPa | 28983 kPa | 29031 kPa | 29080 kPa | 29101 kPa | 29123 kPa | 29172 kPa | 29195 kPa
1001.5 ± 1.2 kg/m3: 28801 kPa | 28822 kPa | 29009 kPa
1001.2 ± 1.2 kg/m3: 28129 kPa | 28174 kPa | 28239 kPa | 28285 kPa | 28305 kPa | 28416 kPa | 28482 kPa
1002.1 ± 1.2 kg/m3: 30102 kPa | 30180 kPa | 30284 kPa
1001.8 ± 1.2 kg/m3: 29361 kPa | 29483 kPa | 29506 kPa | 29579 kPa | 29608 kPa | 29631 kPa | 29727 kPa
1002.2 ± 1.2 kg/m3: 30131 kPa | 30156 kPa | 30206 kPa | 30254 kPa | 30307 kPa | 30336 kPa | 30410 kPa | 30571 kPa
1001.7 ± 1.2 kg/m3: 29150 kPa | 29221 kPa | 29244 kPa | 29267 kPa | 29290 kPa | 29317 kPa | 29339 kPa | 29388 kPa | 29411 kPa
1001.9 ± 1.2 kg/m3: 29438 kPa | 29460 kPa | 29534 kPa | 29557 kPa | 29654 kPa | 29681 kPa | 29755 kPa | 29778 kPa | 29829 kPa
1002.3 ± 1.2 kg/m3: 30361 kPa | 30385 kPa | 30440 kPa | 30465 kPa | 30490 kPa | 30520 kPa | 30546 kPa | 30595 kPa | 30650 kPa
1001.4 ± 1.2 kg/m3: 28461 kPa | 28575 kPa | 28596 kPa | 28642 kPa | 28664 kPa | 28685 kPa | 28707 kPa | 28753 kPa | 28775 kPa | 28848 kPa | 28870 kPa | 28891 kPa | 29058 kPa
